Measured values: patent US7214794B2, “Ceramide analogs, process for their preparation and their use as antitumor agents” (Bracco S.p.A., priority 1999, dated 2007)

Test system: human leukemia cell line CCRF/CEM
Assay: Cytotoxicity test (growth inhibition of CCRF/CEM cells)
Assay type: cell-based
Settings: 72 hours exposure, cell count, non-linear regression, read-out: IC50 (concentration capable of inhibiting 50% of cell growth)
Method: The cytotoxicity of the compounds synthesized 1–28 was assessed using a human leukemia cell line called CCRF/CEM. The CCRF/CEM cells were cultured in a culture medium containing RPMI 1640 (90%), bovine fetal sera (10%) and interleukin-2 (100 U/ml). The cytotoxicity assay was performed on […] CCRF/CEM cells seeded in 35 mm wells in 2 ml of culture medium. The cells were treated with the compounds under consideration for 72 hours and at the end of the period of exposure their number was counted and compared with that of control cells treated with C2-ceramide in order to establish the percentage of growth inhibition. The concentration capable of inhibiting 50% of cell growth was calculated by non-linear regression of the experimental data as described in M. Macchia, N. Jannitti, G. B. Gervasi, R. Danesi, J Med Chem, (1996) 39 (7): 1352–1356.

Compound: CCCCCCCCCCCCC/C=C/[C@@H](O)[C@H](CO)NC(C)=O [controls, C2-ceramide]
- IC50: 31.6 µM
